{"source": "patent US10703698B2", "about": "“Compounds which activate estrogen receptors and compositions and methods of using the same” (The Board of Trustees of the University of Illinois, priority 2016, dated 2020)", "key": {"MCF-7 cells [1]": {"system": "MCF-7 cells", "test": "Seahorse cell metabolic phenotype assays in MCF-7 cells", "format": "cell-based, human", "settings": "24 hours; listed as PaPE-1"}, "[2]": {"test": "pharmacokinetics after SC injection in ovariectomized mice", "format": "in vivo", "settings": "female, C57BL/6, mouse, serum, 100 ug, subcutaneous injection", "description": "For short-term studies, ovariectomized C57BL/6 mice were injected SC with 100 μg of PaPE-1 in 100 μl DMSO. Three mice were sacrificed at each time point, and 400 μl of blood was obtained from the abdominal aorta. Samples were centrifuged at 2000 g for 10 min, and serum was collected. A 50 μl portion of each sample was submitted to the Metabolomics Center at the University of Illinois for analysis. For longer-term studies, ovariectomized C57BL/6 mice were implanted SC with a pellet fabricated with 8 mg PaPE-1 and 12 mg cholesterol. Blood samples (30 μl) were collected by tail snipping every week until the third week of treatment. Samples were centrifuged at 2000 g for 10 min and serum was collected. Serum (10 μl) was mixed with 40 μl of PBS and submitted to the Metabolomics Center for analysis. For analysis, a mass standard of PaPE-1 (labeled with three deuterium atoms) was added to each sample before analysis by liquid chromatography-mass spectrometry using the 5500 QTrap with Agilent 1200 HPLC."}, "MCF-7 cells [3]": {"system": "MCF-7 cells", "test": "RNA-Seq of MCF-7 cells treated with OA with and without PaPE-1", "format": "cell-based, human", "description": "FIG. 38. Identification of genes induced by OA and PaPE-1's effect on the gene regulation. (A) RNA-Seq analysis of gene expression changes induced by OA and OA+PaPE1. Heat map of the genes with significant changed expression. MCF-7 cells were treated with Veh or 100 nM OA with and without 1 μM PaPE-1 for 24 h. RNA was isolated and RNA-Seq was performed using 2 samples from each treatment group. Differentially regulated genes were determined with p<0.05 and expression fold change >2. (B) Clusters from A. regulated by OA and reversed by PaPE-1. The average gene expression level of the cluster1 (C1) and 2 (C2) identified as PaPE-1 regulated high-fat genes. In C1, there are 425 genes whose expression were found stimulated in OA but not in the OA+PaPE-1 treatment. In C2, there are 646 genes whose expression were found suppressed in the OA but restored by OA+PaPE-1 treatment. (C) Venn diagram analysis. […] (D) Examples of OA-regulated genes. Some of the top functions of the involved genes are presented."}}, "note": "Entries after “also recorded” stand apart in the source; their conditions may differ."}
{"smiles": "Cc1cc(-c2ccc3c(c2)CCC3O)cc(C)c1O", "note": "(racemic) [Compound 2, 5-(4-hydroxy-3,5-dimethylphenyl)-2,3-dihydro-1H-inden-1-ol]", "values": [{"measurement": "OA-induced glycolytic and aerobic respiration with PaPE-1", "setting": "MCF-7 cells [1]", "result": "reversed by PaPE-1 treatment; also recorded: normalized by adding PaPE-1"}, {"measurement": "half-life", "setting": "[2]", "result": "~1", "unit": "h"}, {"measurement": "cluster C1: genes stimulated in OA but not in OA+PaPE-1", "setting": "MCF-7 cells [3]", "result": 425, "unit": "genes"}, {"measurement": "cluster C2: genes suppressed in OA but restored by OA+PaPE-1", "setting": "MCF-7 cells [3]", "result": 646, "unit": "genes"}, {"measurement": "OA-downregulated genes whose expression was restored by PaPE-1", "setting": "MCF-7 cells [3]; 1 μM PaPE-1", "result": "about 60%"}, {"measurement": "OA-upregulated genes whose activation was blocked by PaPE-1", "setting": "MCF-7 cells [3]; 1 μM PaPE-1", "result": 80, "unit": "%"}]}
